Laboratory results taken from ChEMBL document CHEMBL5108065 (J Med Chem, 2022).
In brackets after ≈: the same amount, converted by molar mass.

Key:
[1] = Metabolic stability in human hepatocytes assessed as intrinsic clearance measured per 10^6 cells; assay type: functional, Hepatocyte
[2] = Lipophilicity, log D of the compound; assay type: physicochemical; settings: octanol/water
Cathepsin D = Cathepsin D (Homo sapiens, UniProt P07339); experiment: Inhibition of human cathepsin D
[3] = Inhibition of BACE (unknown origin); set-up: species or system Homo sapiens
Renin = target: T1, Renin (Homo sapiens, UniProt P00797); experiment: Inhibition of human renin
T1 sequence (P00797 whole entry): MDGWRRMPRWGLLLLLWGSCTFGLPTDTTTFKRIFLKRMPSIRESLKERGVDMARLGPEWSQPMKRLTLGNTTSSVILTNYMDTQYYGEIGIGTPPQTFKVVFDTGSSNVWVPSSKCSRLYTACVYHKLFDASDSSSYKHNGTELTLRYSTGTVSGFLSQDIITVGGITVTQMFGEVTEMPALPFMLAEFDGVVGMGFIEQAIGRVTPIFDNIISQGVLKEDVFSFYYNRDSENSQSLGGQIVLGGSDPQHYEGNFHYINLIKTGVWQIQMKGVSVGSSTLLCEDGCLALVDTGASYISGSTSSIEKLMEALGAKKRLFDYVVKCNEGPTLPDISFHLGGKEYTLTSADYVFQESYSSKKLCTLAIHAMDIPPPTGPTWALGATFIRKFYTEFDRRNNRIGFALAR

Plasmepsin X = Plasmepsin X (Plasmodium falciparum (isolate 3D7), UniProt Q8IAS0); experiment: biochemical
Chain of Plasmepsin X (Q8IAS0 whole entry): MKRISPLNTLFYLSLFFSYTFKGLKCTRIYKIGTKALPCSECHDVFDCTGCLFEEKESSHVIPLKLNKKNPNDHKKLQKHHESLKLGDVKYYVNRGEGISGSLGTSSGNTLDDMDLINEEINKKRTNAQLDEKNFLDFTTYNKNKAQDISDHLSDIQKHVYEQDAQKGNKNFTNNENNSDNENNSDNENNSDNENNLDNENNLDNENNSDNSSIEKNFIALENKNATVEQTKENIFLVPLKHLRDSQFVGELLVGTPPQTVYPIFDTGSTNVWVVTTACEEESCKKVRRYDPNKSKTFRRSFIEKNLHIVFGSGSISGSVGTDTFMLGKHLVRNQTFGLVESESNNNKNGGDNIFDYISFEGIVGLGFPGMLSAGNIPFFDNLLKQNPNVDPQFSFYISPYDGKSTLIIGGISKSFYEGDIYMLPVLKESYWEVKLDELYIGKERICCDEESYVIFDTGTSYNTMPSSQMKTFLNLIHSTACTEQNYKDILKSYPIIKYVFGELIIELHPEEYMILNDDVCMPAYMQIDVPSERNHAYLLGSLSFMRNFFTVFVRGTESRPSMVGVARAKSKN
Description: Inhibition of Plasmodium falciparum recombinant C-terminal TEV cleavable 8his-tagged PMX by FRET assay

[4] = Solubility of the compound in FeSSIF at pH 5.8; assay type: physicochemical; settings: simulated gi fluid
Plasmodium falciparum [5] = experiment: Antimalarial activity against DDD107498 resistant Plasmodium falciparum Dd2 harbouring pfeef2 mutated loci assessed as inhibition of parasite growth pretreated for 48 hrs followed by [3H]-hypoxanthine addition measured after 24 hrs by scintillation counting method; assay type: functional, organism-based
Plasmodium falciparum [6] = experiment: Antimalarial activity against DSM265 resistant Plasmodium falciparum Dd2 harbouring pf-dhodh mutated loci assessed as inhibition of parasite growth pretreated for 48 hrs followed by [3H]-hypoxanthine addition measured after 24 hrs by scintillation counting method; assay type: functional, organism-based
Plasmodium falciparum [7] = experiment: Antiplasmodial activity against sensitive Plasmodium falciparum NF54 infected in human red blood cells assessed as reduction in [3H]-hypoxanthine incorporation pretreated for 48 hrs followed by [3H]-hypoxanthine addition measured after 24 hrs by scintillation counting method; assay type: functional, organism-based
Plasmodium falciparum [8] = experiment: Antimalarial activity against Plasmodium falciparum TM90C2b harbouring Pf-crt, Pf-mdrl,Pfd-hfr, Pf-cytbQ0 mutated loci assessed as inhibition of parasite growth pretreated for 48 hrs followed by [3H]-hypoxanthine addition measured after 24 hrs by scintillation counting method; assay type: functional, organism-based
Plasmodium falciparum [9] = experiment: Antimalarial activity against Plasmodium falciparum K1 harbouring Pf-crt, Pf-mdrl,Pf-dhfr, Pf-dhps mutated loci assessed as inhibition of parasite growth pretreated for 48 hrs followed by [3H]-hypoxanthine addition measured after 24 hrs by scintillation counting method; assay type: functional, organism-based
Plasmodium falciparum [10] = experiment: Antimalarial activity against KAF156 resistant Plasmodium falciparum Dd2 harbouring pf-carl mutated loci assessed as inhibition of parasite growth pretreated for 48 hrs followed by [3H]-hypoxanthine addition measured after 24 hrs by scintillation counting method; assay type: functional, organism-based
[11] = Inhibition of Plasmodium vivax PMX by FRET assay
[12] = Inhibition of Plasmodium falciparum PMV by FRET assay
Plasmodium falciparum [13] = experiment: Antimalarial activity against ELQ300 resistant Plasmodium falciparum Dd2 harbouring pfcytB mutated loci assessed as inhibition of parasite growth pretreated for 48 hrs followed by [3H]-hypoxanthine addition measured after 24 hrs by scintillation counting method; assay type: functional, organism-based
Plasmodium falciparum [14] = experiment: Antimalarial activity against Plasmodium falciparum Dd2048 harbouring pfpi4k mutated loci assessed as inhibition of parasite growth pretreated for 48 hrs followed by [3H]-hypoxanthine addition measured after 24 hrs by scintillation counting method; assay type: functional, organism-based
Homo sapiens = species on record: Homo sapiens; experiment: Inhibition of BACE (unknown origin) at 10 uM relative to control

Chain of Cathepsin D (P07339 65-162 limits assumed): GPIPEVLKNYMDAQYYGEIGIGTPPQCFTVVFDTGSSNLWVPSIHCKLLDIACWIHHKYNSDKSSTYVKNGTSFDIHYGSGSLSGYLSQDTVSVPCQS
Chain of Cathepsin D (P07339 169-412 limits assumed): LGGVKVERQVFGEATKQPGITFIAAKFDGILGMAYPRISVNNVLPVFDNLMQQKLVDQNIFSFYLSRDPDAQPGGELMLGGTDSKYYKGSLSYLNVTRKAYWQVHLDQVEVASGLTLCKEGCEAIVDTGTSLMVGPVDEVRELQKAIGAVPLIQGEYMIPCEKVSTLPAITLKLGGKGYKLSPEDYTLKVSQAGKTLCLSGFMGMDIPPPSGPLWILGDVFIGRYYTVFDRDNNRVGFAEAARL

In the case of `[H]/N=C1\N[C@](C)(c2cccc(Nc3cnc(C4CC4)nc3)c2Cl)CC(=O)N1[C@H]1CCO[C@@H](C)C1`, the intrinsic clearance [1] is reported as 4 µL/min, the logD [2] is reported as 2 and the IC50 (Cathepsin D) is reported as 215 nM. The IC50 [3] was over 10000 nM, the IC50 (Renin) was 2360 nM and the IC50 (Plasmepsin X) was 9 nM. It also gave a solubility [4] of 1372 µM (≈ 643 µg/mL).
`C[C@@]1(c2cccc(Nc3ccccc3)c2Cl)CC(=O)N(C2CCOCC2)C(=N)N1` gave an IC50 (Plasmodium falciparum [5]) of 82 nM, an IC50 (Plasmodium falciparum [6]) of 78 nM and an IC50 (Plasmodium falciparum [7]) of 107 nM. The intrinsic clearance [1] was 28 µL/min, the IC50 (Plasmodium falciparum [8]) was 62 nM and the IC50 (Plasmodium falciparum [9]) was 112 nM. It also gave an IC50 (Plasmodium falciparum [10]) of 83 nM, an IC50 [11] of 31 nM and an IC50 [12] of 2700 nM. The logD [2] was 2.2, the IC50 (Cathepsin D) was 58 nM and the IC50 (Plasmodium falciparum [13]) was 96 nM. It also gave an IC50 (Plasmepsin X) of 15 nM, a solubility [4] of 1057 µM (≈ 436 µg/mL) and an IC50 (Plasmodium falciparum [14]) of 87 nM.
In the case of `C[C@@]1(c2cccc(NC(=O)c3ccccc3)c2Cl)CC(=O)N(C2CCOCC2)C(=N)N1`, the intrinsic clearance [1] is reported as 4 µL/min, the IC50 [12] is reported as over 5000 nM and the logD [2] is reported as 1.2. It also gave an IC50 (Cathepsin D) of over 10000 nM and an IC50 (Plasmepsin X) of 32 nM.
In the case of `C[C@@]1(c2cccc(Nc3ccc(C4CC4)nc3)c2Cl)CC(=O)N(C2CCOCC2)C(=N)N1`, the intrinsic clearance [1] is reported as 3 µL/min, the inhibition (Homo sapiens) is reported as 52% and the logD [2] is reported as 2.1. It also gave an IC50 (Cathepsin D) of 1190 nM, an IC50 (Renin) of 1070 nM and an IC50 (Plasmepsin X) of 37 nM. The solubility [4] was 1161 µM (≈ 527 µg/mL).
